In patent US9376506B2, “Method for producing sialic-acid-containing sugar chain” (GLYTECH, INC., priority 2011, dated 2016):
Like-named read-outs stand apart in the source and are kept apart here.

Tests used:
[1] = Stability of CMP-Neu5Ac (CMP formation, HPLC); type: physicochemical; settings: 5 mM CMP-Neu5Ac/0.1 M MOPS (pH 7.3), after 24 hours
Protocol: In order to confirm whether CMP was formed by the degradation of the substrate donor CMP-Neu5Ac, 5 mM CMP-Neu5Ac/0.1 M MOPS (pH 7.3) was incubated at 25° C., 30° C., 33° C., or 37° C., and the amount of CMP formed was measured. The measurement was performed by HPLC using a column TSKgel SuperQ-5PW (7.5×75 mm; Tosoh Corp.) and 50 mM KPi (pH 8.0) as a solvent. A UV detector (detection wavelength: 254 nm) was used for the detection. The degree of CMP formation was indicated by [Peak area of CMP]/[Peak area of CMP+Peak area of CMP-Neu5Ac]×100(%). After 24 hours, 45% CMP was formed at 37° C., whereas 21% CMP was formed at 30° C., which was about half of that formed at 37° C.

[2] = target: T1, ST6Gal-I (Homo sapiens, UniProt P15907); settings: 0.25 mM CMP, cited from earlier work
T1 sequence (P15907 1-406): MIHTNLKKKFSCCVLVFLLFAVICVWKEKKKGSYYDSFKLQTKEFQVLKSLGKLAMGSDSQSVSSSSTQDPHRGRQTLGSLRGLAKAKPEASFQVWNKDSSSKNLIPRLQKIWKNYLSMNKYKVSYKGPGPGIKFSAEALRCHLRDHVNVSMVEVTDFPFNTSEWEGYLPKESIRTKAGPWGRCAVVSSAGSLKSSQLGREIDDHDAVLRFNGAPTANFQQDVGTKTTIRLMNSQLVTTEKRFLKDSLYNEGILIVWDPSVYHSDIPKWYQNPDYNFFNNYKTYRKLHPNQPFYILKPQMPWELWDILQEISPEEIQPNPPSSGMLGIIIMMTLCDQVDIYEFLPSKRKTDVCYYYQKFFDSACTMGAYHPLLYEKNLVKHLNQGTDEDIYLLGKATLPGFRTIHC

| SMILES | CMP formed, [Peak area of CMP]/[Peak area of CMP+Peak area of CMP-Neu5Ac]×100 ([1]; 30° C.) | CMP formed, [Peak area of CMP]/[Peak area of CMP+Peak area of CMP-Neu5Ac]×100 ([1]; 37° C.) | product inhibition of ST6Gal-I by CMP ([2]; Non Patent Literature 5) | product inhibition of ST6Gal-I by CMP ([2]; Non Patent Literature 6) |
| --- | --- | --- | --- | --- |
| CC(=O)N[C@H]1[C@H]([C@H](O)[C@H](O)CO)O[C@](OP(=O)(O)OC[C@H]2O[C@@H](n3ccc(N)nc3=O)[C@H](O)[C@@H]2O)(C(=O)O)C[C@@H]1O [CMP-Neu5Ac, CMP-N-acetylneuraminic acid] | 21% | 45% |  |  |
| Nc1ccn([C@@H]2O[C@H](COP(=O)(O)O)[C@@H](O)[C@H]2O)c(=O)n1 [CMP, cytidine monophosphate] |  |  | 49% | 71% |
